What follows are molecules tested against T1, Recombinant human cathepsin S (CatS) (Homo sapiens, UniProt P25774) (assay: Recombinant human cathepsin S (CatS) fluorogenic substrate inhibition assay). Details: not given.
T1 construct: made in house
Assay type: biochemical
Experimental: Recombinant human cathepsin S (CatS) was expressed in the baculovirus system and purified in one step with a thiopropyl-sepharose column. […] The assay is run in 150 mM sodium acetate pH 5.0 containing 1.5 mM DTT and 150 mM NaCl. […] Measurements are taken every min for 20 min. The rate is calculated from the slope of the increase in fluorescence and the percent inhibition is calculated from this.

T1 sequence (P25774 115-331): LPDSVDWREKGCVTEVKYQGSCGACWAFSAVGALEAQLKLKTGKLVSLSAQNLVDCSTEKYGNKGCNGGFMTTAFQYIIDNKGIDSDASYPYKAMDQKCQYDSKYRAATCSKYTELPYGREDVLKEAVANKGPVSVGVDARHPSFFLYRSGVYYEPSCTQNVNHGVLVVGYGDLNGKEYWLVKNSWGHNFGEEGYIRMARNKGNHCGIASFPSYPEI

Row | SMILES | IC50
1 | CS(=O)(=O)N1CCc2c(c(-c3ccc(C(F)(F)F)c(CNC(=O)Oc4ccc(F)cc4)c3)nn2CC(O)CN2CCCC2)C1 (centres unmarked) [Example 213, {5-[1-(2-Hydroxy-3-pyrrolidin-1-yl-propyl)-5-methanesulfonyl-4,5,6,7-tetrahydro-1H-pyrazolo[4,3-c]pyridin-3-yl]-2-trifluoromethyl-benzyl}-carbamic acid 4-fluoro-phenyl ester] | 0.56 µM

Same assay, conditions: average of results obtained; substrate Z-Valine-Valine-Arginine-AMC 10 μM, pH 5.0; read-out: CatS IC50

Row | SMILES | IC50
2 | CC(C)(C)OC(=O)NC1CCN(CC(O)Cn2nc(-c3ccc(Cl)c(CNC(=O)c4ccc(F)cc4)c3)c3c2CCN(S(C)(=O)=O)C3)CC1 (centres unmarked) [Example 78, {1-[3-(3-{4-Chloro-3-[(4-fluoro-benzoylamino)-methyl]-phenyl}-5-methanesulfonyl-4,5,6,7-tetrahydro-pyrazolo[4,3-c]pyridin-1-yl)-2-hydroxy-propyl]-piperidin-4-yl}-carbamic acid tert-butyl ester] | 0.03 µM
3 | CC(C)=CC(=O)NCc1cc(-c2nn(CC(O)CN3CCC(O)C3)c3c2CN(S(C)(=O)=O)CC3)ccc1C(F)(F)F (centres unmarked) [Example 32, 3-Methyl-but-2-enoic acid 5-{1-[2-hydroxy-3-(3-hydroxy-pyrrolidin-1-yl)-propyl]-5-methanesulfonyl-4,5,6,7-tetrahydro-1H-pyrazolo[4,3-c]pyridin-3-yl}-2-trifluoromethyl-benzylamide] | 0.27 µM
4 | CS(=O)(=O)N1CCc2c(c(-c3ccc(Cl)c(CNC(=O)c4ccc(F)cc4)c3)nn2CC(O)CN2CCC(F)(F)C2)C1 (centres unmarked) [Example 84, N-(2-Chloro-5-{1-[3-(3,3-difluoro-pyrrolidin-1-yl)-2-hydroxy-propyl]-5-methanesulfonyl-4,5,6,7-tetrahydro-1H-pyrazolo[4,3-c]pyridin-3-yl}-benzyl)-4-fluoro-benzamide] | 0.18 µM
5 | CC(C)CC(=O)NCc1cc(-c2nn(CC(O)CN3CCCC3)c3c2CN(S(C)(=O)=O)CC3)ccc1C(F)(F)F (centres unmarked) [Example 281, N-{5-[1-(2-Hydroxy-3-pyrrolidin-1-yl-propyl)-5-methanesulfonyl-4,5,6,7-tetrahydro-1H-pyrazolo[4,3-c]pyridin-3-yl]-2-trifluoromethyl-benzyl]-3-methyl-butyramide] | 0.37 µM
6 | CS(=O)(=O)N1CCc2c(c(-c3ccc(C(F)(F)F)c(CNC(=O)c4ccc(O)cc4)c3)nn2CCCN2CCC3(CCNC3=O)CC2)C1 [Example 142, 4-Hydroxy-N-(5-{5-methanesulfonyl-1-[3-(1-oxo-2,8-diaza-spiro[4.5]dec-8-yl)-propyl]-4,5,6,7-tetrahydro-1H-pyrazolo[4,3-c]pyridin-3-yl}-2-trifluoromethyl-benzyl)-benzamide] | 0.09 µM
7 | CS(=O)(=O)N1CCc2c(c(-c3ccc(Cl)c(CNC(=O)c4ccc(F)cc4)c3)nn2CC(O)CN2CCCC(O)C2)C1 (centres unmarked) [Example 74, N-(2-Chloro-5-{1-[2-hydroxy-3-(3-hydroxy-piperidin-1-yl)-propyl]-5-methanesulfonyl-4,5,6,7-tetrahydro-1H-pyrazolo[4,3-c]pyridin-3-yl}-benzyl)-4-fluoro-benzamide] | 0.3 µM
8 | CS(=O)(=O)N1CCc2c(c(-c3ccc(Cl)c(CNC(=O)c4cccs4)c3)nn2CCCN2CCCC2)C1 [Example 241, Thiophene-2-carboxylic acid 2-chloro-5-[5-methanesulfonyl-1-(3-pyrrolidin-1-yl-propyl)-4,5,6,7-tetrahydro-1H-pyrazolo[4,3-c]pyridin-3-yl]-benzylamide] | 0.97 µM
9 | CCOC(=O)C1CCN(CC(O)Cn2nc(-c3ccc(C(F)(F)F)c(CNC(=O)c4ccc(F)cc4)c3)c3c2CCN(S(C)(=O)=O)C3)CC1 (centres unmarked) [Example 103, 1-[3-(3-{3-[(4-Fluoro-benzoylamino)-methyl]-4-trifluoromethyl-phenyl}-5-methanesulfonyl-4,5,6,7-tetrahydro-pyrazolo[4,3-c]pyridin-1-yl)-2-hydroxy-propyl]-piperidine-4-carboxylic acid ethyl ester] | 0.03 µM
10 | CS(=O)(=O)N1CCc2c(c(-c3ccc(C(F)(F)F)c(CNC(=O)c4ccc([N+](=O)[O-])cc4)c3)nn2CC(O)CN2CCCC2)C1 (centres unmarked) [Example 212, N-{5-[1-(2-Hydroxy-3-pyrrolidin-1-yl-propyl)-5-methanesulfonyl-4,5,6,7-tetrahydro-1H-pyrazolo[4,3-c]pyridin-3-yl]-2-trifluoromethyl-benzyl}-4-nitro-benzamide] | 0.52 µM
11 | CS(=O)(=O)N1CCc2c(c(-c3ccc(Cl)c(COC(=O)c4ccc(F)cc4)c3)nn2CCCN2CCCC2)C1 [Example 3, 4-Fluoro-benzoic acid 2-chloro-5-[5-methanesulfonyl-1-(3-pyrrolidin-1-yl-propyl)-4,5,6,7-tetrahydro-1H-pyrazolo[4,3-c]pyridin-3-yl]-benzyl ester] | 1.32 µM
12 | CS(=O)(=O)N1CCc2c(c(-c3ccc(C(F)(F)F)c(CNC(=O)c4ccc(Cl)c(Cl)c4)c3)nn2CC(O)CN2CCCC2)C1 (centres unmarked) [Example 229, 3,4-Dichloro-N-{5-[1-(2-hydroxy-3-pyrrolidin-1-yl-propyl)-5-methanesulfonyl-4,5,6,7-tetrahydro-1H-pyrazolo[4,3-c]pyridin-3-yl]-2-trifluoromethyl-benzyl}-benzamide] | 0.78 µM
13 | CS(=O)(=O)N1CCc2c(c(-c3ccc(C(F)(F)F)c(CNC(=O)c4ccccc4)c3)nn2CC(O)CN2CCCC2)C1 (centres unmarked) [Example 56, N-{5-[1-(2-Hydroxy-3-pyrrolidin-1-yl-propyl)-5-methanesulfonyl-4,5,6,7-tetrahydro-1H-pyrazolo[4,3-c]pyridin-3-yl]-2-trifluoromethyl-benzyl}-benzamide] | 0.25 µM
14 | CS(=O)(=O)N1CCc2c(c(-c3ccc(C(F)(F)F)c(CNC(=O)c4ccc(F)cc4)c3)nn2CC(O)CN2CCC[C@H]2C(N)=O)C1 (stereo partly drawn) [Example 97, (S)-1-[3-(3-{3-[(4-Fluoro-benzoylamino)-methyl]-4-trifluoromethyl-phenyl}-5-methanesulfonyl-4,5,6,7-tetrahydro-pyrazolo[4,3-c]pyridin-1-yl)-2-hydroxy-propyl]-pyrrolidine-2-carboxylic acid amide] | 0.24 µM
15 | Cc1nc2ccccc2c(=O)n1Cc1cc(-c2nn(CCCN3CCC4(CCNC4=O)CC3)c3c2CN(S(C)(=O)=O)CC3)ccc1C(F)(F)F [Example 174, 3-(5-{5-Methanesulfonyl-1-[3-(1-oxo-2,8-diaza-spiro[4.5]dec-8-yl)-propyl]-4,5,6,7-tetrahydro-1H-pyrazolo[4,3-c]pyridin-3-yl}-2-trifluoromethyl-benzyl)-2-methyl-3H-quinazolin-4-one] | 13.5 µM
16 | CS(=O)(=O)N1CCc2c(c(-c3ccc(C(F)(F)F)c(CNC(=O)c4ccc(F)cc4)c3)nn2CC(O)CN2CNC(=O)C2)C1 (centres unmarked) [Example 171, 4-Fluoro-N-(5-{1-[2-hydroxy-3-(4-oxo-imidazolidin-1-yl)-propyl]-5-methanesulfonyl-4,5,6,7-tetrahydro-1H-pyrazolo[4,3-c]pyridin-3-yl}-2-trifluoromethyl-benzyl)-benzamide] | 0.6 µM
17 | CS(=O)(=O)N1CCc2c(c(-c3ccc(Cl)c(CNC(=O)c4ccc(F)cc4)c3)nn2CCCN2CCCC2)C1 [Example 35, N-{2-Chloro-5-[5-methanesulfonyl-1-(3-pyrrolidin-1-yl-propyl)-4,5,6,7-tetrahydro-1H-pyrazolo[4,3-c]pyridin-3-yl]-benzyl}-4-fluoro-benzamide] | 0.28 µM
